From publication PMC5591292, “Identification of Purple Acid Phosphatases in Chickpea and Potential Roles of CaPAP7 in Seed Phytate Accumulation” (Scientific Reports, 2017)

Target: T1, CaPAP7 (Cicer arietinum, UniProt A0A1S2YHG0)
T1 construct: gene PAP7; ORF PCR product of 1008 bp (about 335 residues) in pET28a, E. coli BL21(DE3) pLysS, Ni-NTA purified, ~38 kDa on SDS-PAGE; signal peptide predicted but protein cytoplasmic
T1 sequence (A0A1S2YHG0 1-335): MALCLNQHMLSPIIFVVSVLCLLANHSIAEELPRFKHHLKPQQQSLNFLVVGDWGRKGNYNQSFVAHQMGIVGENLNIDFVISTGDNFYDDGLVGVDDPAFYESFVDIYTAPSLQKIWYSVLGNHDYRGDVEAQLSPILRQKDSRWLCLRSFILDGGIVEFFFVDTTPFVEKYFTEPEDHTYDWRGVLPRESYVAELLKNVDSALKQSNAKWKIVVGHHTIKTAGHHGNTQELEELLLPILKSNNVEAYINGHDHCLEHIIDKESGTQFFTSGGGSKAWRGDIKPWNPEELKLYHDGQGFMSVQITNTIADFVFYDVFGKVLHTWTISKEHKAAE
Assay: phosphatase activity assay, […] min
Type: biochemical
Conditions: 10 mM substrate, 37 °C; maximum activity among substrates tested

O=P(O)(O)O[C@H]1[C@H](OP(=O)(O)O)[C@@H](OP(=O)(O)O)[C@H](OP(=O)(O)O)[C@@H](OP(=O)(O)O)[C@H]1OP(=O)(O)O [phytic acid]
phosphatase activity assay, 30 min: it exhibited maximum catalytic activity for phytic acid
